Patent publication US10752616B2, “Bicycloheteroaryl-heteroaryl-benzoic acid compounds as retinoic acid receptor beta (RARβ) agonists” (King's College London, priority 2014, dated 2020)
“Also recorded” adds a separate entry of the source.

Columns and labels:
RARγ [1] = biological target: T1, RARγ (Homo sapiens (Human), UniProt P13631); settings: transactivation, relative to atRA = 1; cited from earlier work
Target sequence in this assay (P13631 whole entry, species assumed): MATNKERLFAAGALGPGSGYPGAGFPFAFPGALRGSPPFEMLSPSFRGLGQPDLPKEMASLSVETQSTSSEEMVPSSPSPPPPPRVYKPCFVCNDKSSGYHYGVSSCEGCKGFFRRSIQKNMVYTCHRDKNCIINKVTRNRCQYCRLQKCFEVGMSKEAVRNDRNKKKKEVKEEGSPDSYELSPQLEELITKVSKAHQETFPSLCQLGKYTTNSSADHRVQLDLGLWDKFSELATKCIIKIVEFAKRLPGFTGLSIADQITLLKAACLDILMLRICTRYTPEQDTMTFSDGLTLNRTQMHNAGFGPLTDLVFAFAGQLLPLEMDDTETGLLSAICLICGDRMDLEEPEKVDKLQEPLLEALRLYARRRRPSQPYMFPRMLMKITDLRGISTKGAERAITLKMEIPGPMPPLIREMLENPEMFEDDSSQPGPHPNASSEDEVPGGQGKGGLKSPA

RARα [2] = biological target: T2, RARα (Homo sapiens (Human), UniProt P10276); settings: transactivation, relative to atRA = 1; cited from earlier work
Target sequence in this assay (P10276 whole entry, species assumed): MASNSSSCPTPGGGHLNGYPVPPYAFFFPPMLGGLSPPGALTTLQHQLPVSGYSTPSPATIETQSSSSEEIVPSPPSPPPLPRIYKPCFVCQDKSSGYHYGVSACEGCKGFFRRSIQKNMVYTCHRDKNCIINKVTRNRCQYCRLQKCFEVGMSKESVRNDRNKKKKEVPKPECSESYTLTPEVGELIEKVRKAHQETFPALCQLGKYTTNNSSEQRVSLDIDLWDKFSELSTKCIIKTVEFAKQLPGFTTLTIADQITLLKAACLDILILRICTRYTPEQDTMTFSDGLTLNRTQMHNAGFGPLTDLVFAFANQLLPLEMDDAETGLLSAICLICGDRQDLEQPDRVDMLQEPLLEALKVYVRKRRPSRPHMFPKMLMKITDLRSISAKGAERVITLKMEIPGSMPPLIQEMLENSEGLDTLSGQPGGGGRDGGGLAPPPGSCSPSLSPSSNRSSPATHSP

RARβ [3] = biological target: T3, RARβ (Homo sapiens (Human), UniProt P10826); settings: transactivation, relative to atRA = 1; cited from earlier work
Target sequence in this assay (P10826 whole entry, species assumed): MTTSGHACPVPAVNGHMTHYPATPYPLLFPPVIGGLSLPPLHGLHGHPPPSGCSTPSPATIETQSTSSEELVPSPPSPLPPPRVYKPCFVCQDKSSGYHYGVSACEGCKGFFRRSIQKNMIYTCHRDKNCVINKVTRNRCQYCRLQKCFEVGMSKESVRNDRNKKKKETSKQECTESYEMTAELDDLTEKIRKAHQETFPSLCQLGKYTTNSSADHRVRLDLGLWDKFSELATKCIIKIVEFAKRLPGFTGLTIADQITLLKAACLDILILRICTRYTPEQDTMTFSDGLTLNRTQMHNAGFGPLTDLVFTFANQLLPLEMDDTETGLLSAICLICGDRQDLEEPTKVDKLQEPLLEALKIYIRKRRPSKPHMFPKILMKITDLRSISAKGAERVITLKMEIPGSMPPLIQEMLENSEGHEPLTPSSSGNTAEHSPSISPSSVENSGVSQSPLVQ

RARα [4] = biological target: T2, RARα; assay: Binding affinity from Yoshimura et al., 2000, RARα; settings: ratio of relative IC50 (binding), Table 5
Target sequence in this assay (P10276 whole entry, species assumed): as the sequence (P10276 whole entry, species assumed) above

RARα [5] = biological target: T2, RARα; assay: Subtype-specific transactivation from Yoshimura et al., 2000, RARα; type: cell-based; settings: ratio of relative EC30 (transactivation), Table 6
Target sequence in this assay (P10276 whole entry, species assumed): as above

RARγ [6] = biological target: T1, RARγ; assay: Subtype-specific transactivation from Yoshimura et al., 2000, RARγ; type: cell-based; settings: ratio of relative EC30 (transactivation), Table 6
Target sequence in this assay (P13631 whole entry, species assumed): as the sequence (P13631 whole entry, species assumed) above

[7] = test system: rats with severed sensory roots; assay: Severed and re-implanted sensory roots (DRG, left forelimb) in rats; sticky tape tests; type: in vivo; settings: rat, 1 mg/kg two days after lesion, then three times a week
Method: In another example of nerve injury, the four sensory roots from each of four DRG at the level of the left forelimb were severed and re-implanted into the spinal cord.
FIGS. 2A and 2B show two graphs of the time taken for rats to sense sticky tape (FIG. 2A) and to remove sticky tape (FIG. 2B) that is placed on its injured forepaw, as a function of the number of weeks after injury. Rats were treated with 1 mg/kg of the test compound or vehicle two days after lesion, and then three times a week for the period of the experiment. Error bars show SEM. ***P<0.001, students t test, n=3-4 rats for each treatment group. At weeks 3, 4, and 5, there was significant difference between the rats treated with RARβ agonist as compared to rats treated with other retinoid agonists and vehicle.

RARγ [8] = biological target: T1, RARγ; assay: Transactivation assay, human RARγ; type: cell-based; settings: Table 3; Human
Method: (§1) Transcriptional transactivation assays were performed with gal4 fusion receptor constructs, created using each of the RAR ligand binding domains of either mouse or human, co-transfected with the pFR-luc (Stratagene) reporter construct in COS-7 cells.
(§2) Briefly, on day 1, 96 well plates were seeded with 8000 cells per well then left to recover overnight. On day 2, the cells were co-transfected with 100 ng of reporter plasmid and 10 ng of the appropriate receptor plasmid per well using lipofectamine (Invitrogen). On day 3, the lipofectamine containing media was replaced by a DMEM without phenol red, followed by the addition of test compound dissolved in 1 μL of DMSO to each well's 100 μL total volume. Finally, on day 4, the cells were lysed and their luciferase substrate was provided by the BrightGlo™ reagent (Promega), the plates were then read on the MicroBeta TriLux™ (Perkin Elmer).
(§3) Data for test compounds are quoted as EC50 values. Where replicate data has been generated, the data are quoted as the mean EC50 from the separate experiments.
Target sequence in this assay (P13631 185-419): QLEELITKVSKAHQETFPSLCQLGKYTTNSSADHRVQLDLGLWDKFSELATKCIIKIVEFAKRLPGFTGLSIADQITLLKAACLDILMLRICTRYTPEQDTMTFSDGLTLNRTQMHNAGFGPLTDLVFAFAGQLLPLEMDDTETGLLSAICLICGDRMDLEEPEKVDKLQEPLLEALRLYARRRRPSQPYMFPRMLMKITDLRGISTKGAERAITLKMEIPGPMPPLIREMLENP

RARα [9] = biological target: T4, RARα (Mus musculus (Mouse), UniProt P11416); assay: Transactivation assay, mouse RARα; type: cell-based; settings: Table 3
Method: as §1, §2, §3

RARγ [10] = biological target: T5, RARγ (Mus musculus (Mouse), UniProt P18911); assay: Transactivation assay for RARγ (gal4-RAR fusion, pFR-luc reporter, COS-7 cells), Table 2; type: cell-based; settings: for EC50: Table 2, COS-7 reporter, mean of three or more determinations, inactive = no agonist action at highest concentration tested; for RARγ/RARβ ratio: fold-selectivity for RARβ over RARγ, >1 = selective for RARβ
Method: as §1, §2, §3
(§4) EC50's values are reported as mean values of three or more determinations.

RARα [11] = biological target: T4, RARα; assay: Transactivation assay for RARα (gal4-RAR fusion, pFR-luc reporter, COS-7 cells), Table 2; type: cell-based; settings: for EC50: Table 2, COS-7 reporter, mean of three or more determinations, inactive = no agonist action at highest concentration tested; for RARα/RARβ ratio: fold-selectivity for RARβ over RARα, >1 = selective for RARβ
Method: as §1, §2, §3, §4

RARβ [12] = biological target: T6, RARβ (Mus musculus (Mouse), UniProt P22605); assay: Transactivation assay, mouse RARβ; type: cell-based; settings: Table 3, read-out: RARβ potency - EC50
Method: as §1, §2, §3

RARγ [13] = biological target: T5, RARγ; assay: Transactivation assay, mouse RARγ; type: cell-based; settings: Table 3
Method: as §1, §2, §3

RARβ [14] = biological target: T3, RARβ; assay: Transactivation assay, human RARβ; type: cell-based; settings: Table 3; Human; read-out: RARβ potency - EC50
Method: as §1, §2, §3
Target sequence in this assay (P10826 183-417): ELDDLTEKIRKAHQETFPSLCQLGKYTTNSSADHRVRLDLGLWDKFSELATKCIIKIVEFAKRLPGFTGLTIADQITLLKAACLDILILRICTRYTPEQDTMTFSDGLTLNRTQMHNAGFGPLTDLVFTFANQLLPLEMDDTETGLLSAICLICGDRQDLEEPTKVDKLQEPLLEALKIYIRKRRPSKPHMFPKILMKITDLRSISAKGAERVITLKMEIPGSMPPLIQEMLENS

RARβ [15] = biological target: T6, RARβ; assay: Transactivation assay for RARβ (gal4-RAR fusion, pFR-luc reporter, COS-7 cells), Table 2; type: cell-based; settings: COS-7 reporter, mean of three or more determinations, species not stated (method: mouse or human)
Method: as §1, §2, §3, §4

RARα [16] = biological target: T2, RARα; assay: Transactivation assay, human RARα; type: cell-based; settings: Table 3; Human
Method: as §1, §2, §3
Target sequence in this assay (P10276 183-417): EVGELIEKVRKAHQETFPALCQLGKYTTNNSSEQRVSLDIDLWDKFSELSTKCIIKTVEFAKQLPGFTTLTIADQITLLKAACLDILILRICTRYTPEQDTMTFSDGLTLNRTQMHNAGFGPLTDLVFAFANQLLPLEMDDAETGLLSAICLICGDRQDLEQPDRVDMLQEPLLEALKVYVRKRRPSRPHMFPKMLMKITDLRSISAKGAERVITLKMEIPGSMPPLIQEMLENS

cerebellar neurons = assay: Neurite outgrowth assay, cerebellar neurons in the presence of myelin/MAG; type: cell-based, rat; settings: cerebellar neurons, in the presence of MAG/myelin, with CD2019
Method: Cerebellar neurons isolated from post-natal day 3 rat pups were cultured over monolayers of parental 3T3 cells in control media, or media supplemented with a recombinant MAG-Fc chimera (R&D Systems) used at a final concentration of 20 μg/mL MAG-Fc. The monolayers were established for 24 hours prior to addition of the neurons and the co-cultures were maintained for approximately 21 hours. Following careful fixation with 4% paraformaldehyde, the neurons were immuno-stained with a GAP-43 antibody (from Graham Wilkin, Imperial College), dilution of 1:500, and the mean length of the longest neurite per cell was measured for approximately 120-150 neurons as previously described (see, e.g., Williams et al., 2005). DRG and cortical explants were obtained from adult rats, they were cultured in cellogen as previously described (see, e.g., Corcoran and Maden, 1999). Three explants per treatment were used. Neurite outgrowth was assessed 3 days later by immunohistochemistry with NF200 (Sigma, dilution of 1:200). The average lengths of the neurites were measured using image pro plus software. Media consisted of DMEM-F12 (Invitrogen) containing N2 (Invitrogen) supplemented with glucose (33 mM) and glutamine (2 mM).

T6 sequence (P22605 210-444): as the sequence (P10826 183-417) above
T4 sequence (P11416 183-417): as the sequence (P10276 183-417) above, with R165K counted along it
T5 sequence (P18911 185-419): as the sequence (P13631 185-419) above

RARα/RARβ ratio (RARα [5]) | RARγ/RARβ ratio (RARγ [6]) | EC50 (RARγ [10]) [nM] | EC50 (RARα [11]) [nM] | EC50 (RARβ [15]) [nM] | Structure (SMILES) | RARγ relative EC30 (RARγ [1]) | RARα relative EC30 (RARα [2]) | RARβ relative EC30 (RARβ [3]) | further results
0.006 | 7.45 |  |  |  | O=C(O)c1ccc(-c2ccc(-c3cc4c(Cl)ccc(Cl)c4o3)[nH]2)cc1 [1c] | 820 ± 290 | 0.70 ± 0.15 | 110 ± 30 | RARα/RARβ ratio (RARα [4]): 0.0022
0.0038 | 8.33 |  |  |  | O=C(O)c1ccc(-c2ccc(-c3cc4c(F)ccc(F)c4o3)[nH]2)cc1 [1e] | 1750 ± 750 | 0.80 ± 0.17 | 210 ± 40 | 
0.034 | 12.9 |  |  |  | O=C(O)c1ccc(-c2ccc(-c3cc4c(C(F)(F)F)ccc(F)c4o3)[nH]2)cc1 [1f] | 110 ± 20 | 0.29 ± 0.04 | 8.5 ± 0.4 | RARα/RARβ ratio (RARα [4]): 0.0038
0.010 | 6.46 |  |  |  | Cc1ccc(C)c2sc(-c3ccc(-c4ccc(C(=O)O)cc4)[nH]3)cc12 [1j] | 840 ± 360 | 1.3 ± 0.6 | 130 ± 60 | 
 |  | 11 | 26 | 1.94 | Cc1ccc(C)c2oc(-c3nc(-c4ccc(C(=O)O)cc4)no3)cc12 [BHBA-001, 4-(5-(4,7-Dimethylbenzofuran-2-yl)-1,2,4-oxadiazol-3-yl)benzoic acid] |  |  |  | Behavioural tests after 5 weeks (severed sensory roots) [7]: performed as well as non-lesioned animals; Selectivity over RARγ (RARγ [8]): 5-fold; Selectivity over RARα (RARα [9]): 14-fold; EC50 (RARβ [12]): 1.94 nM; Selectivity over RARγ (RARγ [13]): 6-fold; EC50 (RARβ [14]): 2.05 nM; Selectivity over RARα (RARα [16]): 23-fold
 |  | 29 | 136 | 11.4 | Cc1ccc(C)c2oc(-c3nc(-c4ccc(C(=O)O)cc4Cl)no3)cc12 [BHBA-002, 3-Chloro-4-(5-(4,7-dimethylbenzofuran-2-yl)-1,2,4-oxadiazol-3-yl)benzoic acid] |  |  |  | Selectivity over RARγ (RARγ [8]): 2-fold; Selectivity over RARα (RARα [9]): 12-fold; RARγ/RARβ ratio (RARγ [10]): 2.5; RARα/RARβ ratio (RARα [11]): 12; EC50 (RARβ [12]): 11.5 nM; Selectivity over RARγ (RARγ [13]): 3-fold; EC50 (RARβ [14]): 21.4 nM; Selectivity over RARα (RARα [16]): 12-fold
 |  | 25 | 44 | 5.2 | Cc1cc(-c2nc(-c3cc4c(C)ccc(C)c4o3)ns2)ccc1C(=O)O [BHBA-043, 4-(3-(4,7-Dimethylbenzofuran-2-yl)-1,2,4-thiadiazol-5-yl)-2-methylbenzoic acid] |  |  |  | 
 |  | 3.4 | 26 | 2 | Cc1ccc(C)c2oc(-c3nsc(-c4ccc(C(=O)O)c(F)c4)n3)cc12 [BHBA-044, 4-(3-(4,7-Dimethylbenzofuran-2-yl)-1,2,4-thiadiazol-5-yl)-2-fluorobenzoic acid] |  |  |  | RARγ/RARβ ratio (RARγ [10]): 1.7; RARα/RARβ ratio (RARα [11]): 13
 |  | 40 | 91 | 4 | Cc1c(Cl)cc(C)c2oc(-c3nc(-c4ccc(C(=O)O)cc4)no3)cc12 [BHBA-045, 4-(5-(5-Chloro-4,7-dimethylbenzofuran-2-yl)-1,2,4-oxadiazol-3-yl)benzoic acid] |  |  |  | 
 |  |  |  |  | CCCCCCOC(=O)[C@]1(O)C[C@@H]2O[C@@]1(C)n1c3ccccc3c3c4c(c5c6ccccc6n2c5c31)C(=O)NC4 [KT5720] |  |  |  | Effect on RARβ agonist (CD2019) mediated neurite outgrowth (cerebellar neurons): little or no effect; also recorded: does not affect
 |  |  |  |  | O=c1cc(N2CCOCC2)oc2c(-c3ccccc3)cccc12 [LY295002] |  |  |  | Effect on RARβ agonist (CD2019) mediated neurite outgrowth (cerebellar neurons): neurite outgrowth was severely impeded

Structure (SMILES) | RARα/RARβ ratio (RARα [5]) | RARγ/RARβ ratio (RARγ [6]) | EC50 (RARγ [10]) [nM] | EC50 (RARα [11]) [nM] | EC50 (RARβ [15]) [nM] | RARγ relative EC30 (RARγ [1]) | RARα relative EC30 (RARα [2]) | RARβ relative EC30 (RARβ [3]) | further results
Cc1ccc(C)c2oc(-c3ccc(-c4ccc(C(=O)O)cc4)[nH]3)cc12 [1b] | 0.148 | 9.60 |  |  |  | 240 ± 30 | 0.37 ± 0.02 | 25 ± 12 | RARα/RARβ ratio (RARα [4]): 0.0029
